In paper PMC9516332 (Frontiers in Oncology, 2022):
Read-outs that look alike come from different tables or passages of the source.

Columns and labels:
[1] = system: 134 cancer cell lines; assay: Cell viability assay (ATPlite, 72 hours), IC50 on cancer cell line panel
[2] = target: panel of 255 wild-type kinases (Homo sapiens, UniProt P31749); assay: Kinase panel profiling at 1 µmol/L (MSA or IMAP), percentage inhibition; format: biochemical; settings: AKT1 kinase assay; 1 µmol/L single concentration; read-out: %-inhibition AKT1
[3] = target: panel of 255 wild-type kinases (Homo sapiens, UniProt P08581); assay: as above; format: biochemical; settings: MET; 1 µmol/L single concentration
[4] = target: panel of 255 wild-type kinases (Homo sapiens, UniProt Q9Y463); assay: as above; format: biochemical; settings: kinase DYRK1B; 1 µmol/L single concentration; read-out: %-inhibition at 1 µmol/L, DYRK1B
[5] = target: T1, panel of 255 wild-type kinases (Homo sapiens, UniProt Q96PF2); assay: as above; format: biochemical; settings: kinase TSSK2; 1 µmol/L single concentration; read-out: %-inhibition at 1 µmol/L, TSSK2
T1 sequence (Q96PF2 1-358): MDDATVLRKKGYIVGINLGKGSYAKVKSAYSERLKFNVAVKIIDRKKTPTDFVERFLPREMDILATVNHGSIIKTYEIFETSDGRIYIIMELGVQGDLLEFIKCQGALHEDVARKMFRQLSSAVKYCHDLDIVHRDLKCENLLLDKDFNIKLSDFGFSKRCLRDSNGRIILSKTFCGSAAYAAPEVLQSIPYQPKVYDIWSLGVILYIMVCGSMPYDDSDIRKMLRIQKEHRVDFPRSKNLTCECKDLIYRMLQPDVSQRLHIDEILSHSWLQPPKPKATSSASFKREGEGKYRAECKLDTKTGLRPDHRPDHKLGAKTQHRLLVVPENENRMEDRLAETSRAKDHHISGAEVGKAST

CCn1c(=O)c(-c2cc(NC(=O)Nc3ccccc3)c(F)cc2Br)cc2cnc(NC)cc21 [ripretinib]
IC50 ([1]; Homo sapiens, MDA-MB-231, read-out: IC50 in cell proliferation assay): 1.26 µM
IC50 ([1]; Homo sapiens, MDA-MB-453, read-out: IC50 in cell proliferation assay): 3.53 µM
IC50 ([1]; Homo sapiens, MDA-MB-468, read-out: IC50 in cell proliferation assay): 2.47 µM
IC50 ([1]; Homo sapiens, MG-63, read-out: IC50 in cell proliferation assay): 12.3 µM
IC50 ([1]; Homo sapiens, MIA PaCa-2, read-out: IC50 in cell proliferation assay): 24.2 µM
IC50 ([1]; Homo sapiens, MKN-45, read-out: IC50 in cell proliferation assay): > 31.6 µM
IC50 ([1]; Homo sapiens, MOLM-13, read-out: IC50 in cell proliferation assay): 0.238 µM
IC50 ([1]; Homo sapiens, MOLT-4, read-out: IC50 in cell proliferation assay): 3.83 µM
IC50 ([1]; Homo sapiens, MV4-11, read-out: IC50 in cell proliferation assay): 0.578 µM
IC50 ([1]; Homo sapiens, MeWo, read-out: IC50 in cell proliferation assay): 3.58 µM
IC50 ([1]; Homo sapiens, NCCIT, read-out: IC50 in cell proliferation assay): 1.73 µM
IC50 ([1]; Homo sapiens, NCI-H82, read-out: IC50 in cell proliferation assay): 1.11 µM
IC50 ([1]; Homo sapiens, NCI-H460, read-out: IC50 in cell proliferation assay): 1.62 µM
IC50 ([1]; Homo sapiens, NCI-H661, read-out: IC50 in cell proliferation assay): 11.8 µM
IC50 ([1]; Homo sapiens, NCI-H716, read-out: IC50 in cell proliferation assay): 1.44 µM
IC50 ([1]; Homo sapiens, NCI-H1650, read-out: IC50 in cell proliferation assay): > 31.6 µM
IC50 ([1]; Homo sapiens, NCI-H1975, read-out: IC50 in cell proliferation assay): 2.17 µM
IC50 ([1]; Homo sapiens, NCI-H2228, read-out: IC50 in cell proliferation assay): 4.14 µM
IC50 ([1]; Homo sapiens, OVCAR-3, read-out: IC50 in cell proliferation assay): 2 µM
IC50 ([1]; Homo sapiens, PFSK-1, read-out: IC50 in cell proliferation assay): 8 µM
IC50 ([1]; Homo sapiens, RL95-2, read-out: IC50 in cell proliferation assay): 1.13 µM
IC50 ([1]; Homo sapiens, RPMI-7951, read-out: IC50 in cell proliferation assay): 6.45 µM
IC50 ([1]; Homo sapiens, RS4-11, read-out: IC50 in cell proliferation assay): 1.17 µM
IC50 ([1]; Homo sapiens, Rec1, read-out: IC50 in cell proliferation assay): 5.27 µM
IC50 ([1]; Homo sapiens, SHP77, read-out: IC50 in cell proliferation assay): > 31.6 µM
IC50 ([1]; Homo sapiens, SK-BR-3, read-out: IC50 in cell proliferation assay): 2.04 µM
IC50 ([1]; Homo sapiens, SK-N-AS, read-out: IC50 in cell proliferation assay): 2.37 µM
IC50 ([1]; Homo sapiens, SK-N-FI, read-out: IC50 in cell proliferation assay): 2.92 µM
IC50 ([1]; Homo sapiens, SK-N-MC, read-out: IC50 in cell proliferation assay): 4.76 µM
IC50 ([1]; Homo sapiens, SK-N-SH, read-out: IC50 in cell proliferation assay): 3.61 µM
IC50 ([1]; Homo sapiens, SNU-5, read-out: IC50 in cell proliferation assay): 30.2 µM
IC50 ([1]; Homo sapiens, SNU-16, read-out: IC50 in cell proliferation assay): 0.773 µM
IC50 ([1]; Homo sapiens, SNU-C2B, read-out: IC50 in cell proliferation assay): 15.7 µM
IC50 ([1]; Homo sapiens, SU-DHL-1, read-out: IC50 in cell proliferation assay): 2.78 µM
IC50 ([1]; Homo sapiens, SU-DHL-6, read-out: IC50 in cell proliferation assay): 8.19 µM
IC50 ([1]; Homo sapiens, SUP-T1, read-out: IC50 in cell proliferation assay): 2.46 µM
IC50 ([1]; Homo sapiens, SW48, read-out: IC50 in cell proliferation assay): 2.84 µM
IC50 ([1]; Homo sapiens, SW480, read-out: IC50 in cell proliferation assay): 3.6 µM
IC50 ([1]; Homo sapiens, SW626, read-out: IC50 in cell proliferation assay): 3.91 µM
IC50 ([1]; Homo sapiens, SW780, read-out: IC50 in cell proliferation assay): 30.7 µM
IC50 ([1]; Homo sapiens, SW837, read-out: IC50 in cell proliferation assay): 7.36 µM
IC50 ([1]; Homo sapiens, SW872, read-out: IC50 in cell proliferation assay): 2.46 µM
IC50 ([1]; Homo sapiens, SW900, read-out: IC50 in cell proliferation assay): 9.13 µM
IC50 ([1]; Homo sapiens, SW948, read-out: IC50 in cell proliferation assay): 1.68 µM
IC50 ([1]; Homo sapiens, SW982, read-out: IC50 in cell proliferation assay): 2.26 µM
IC50 ([1]; Homo sapiens, SW-620, read-out: IC50 in cell proliferation assay): 1.9 µM
IC50 ([1]; Homo sapiens, T98G, read-out: IC50 in cell proliferation assay): 3.47 µM
IC50 ([1]; Homo sapiens, TCC-SUP, read-out: IC50 in cell proliferation assay): 1.29 µM
IC50 ([1]; Homo sapiens, THP-1, read-out: IC50 in cell proliferation assay): 0.981 µM
IC50 ([1]; Homo sapiens, U2OS, read-out: IC50 in cell proliferation assay): 3.38 µM
IC50 ([1]; Homo sapiens, U-87 MG, read-out: IC50 in cell proliferation assay): > 31.6 µM
IC50 ([1]; Homo sapiens, U-118-MG, read-out: IC50 in cell proliferation assay): 4.22 µM
IC50 ([1]; Homo sapiens, UMUC3, read-out: IC50 in cell proliferation assay): 2.89 µM
IC50 ([1]; Hs766T, read-out: IC50 in cell proliferation assay): 4.7 µM
IC50 ([1]; L-82, read-out: IC50 in cell proliferation assay): 3.03 µM
IC50 ([1]; Rh30, read-out: IC50 in cell proliferation assay): 3 µM
inhibition at 1 µM [2]: -6%
inhibition at 1 µM [3]: 8%
inhibition at 1 µM [4]: -2.38%
inhibition at 1 µM [5]: -3.73%
